Measured values published in PMC11311842, “Radiosynthesis and Preclinical Evaluation of ^18F-Labeled Estradiol Derivatives with Different Lipophilicity for PET Imaging of Breast Cancer” (Cancers, 2024).
“Also recorded” adds a separate entry of the source.

Legend:
[1] = tested on: ER+ MCF-7 tumor slices; test: In vitro autoradiography of MCF-7 tumor slices; type: binding, human; conditions: 60 min, room temperature, with or without E2 (72 µM)
Description: (§1) MCF-7, MDA-MB231 and T47D tumors grown in nude mice were collected and frozen in a hexane/dry ice bath (−70 °C). Tumor slices (14 µm) were prepared on a cryostat microtome HM 500 O (Microm, Walldorf, Germany), thaw-mounted on HistoBond® adhesive glass slides (Marienfeld, Lauda-Königshofen, Germany) and stored at −80 °C. For in vitro autoradiography studies, the tumor tissue sections were thawed and pre-incubated in incubation buffer (50 mM Tris HCl, 5 mM MgCl2, 0.2% bovine serum albumin (BSA), pH 7.4) at room temperature for 15 min. Then, the sections were transferred to incubation buffer containing ^18F-TA-Glyco-EE (3–5 MBq) in a total volume of 70 mL. For the determination of non-specific binding, separate sections were incubated with ^18F-TA-Glyco-EE in the presence of E2 (72 µM). After an incubation time of 60 min, the sections were washed three times with incubation buffer, followed by a short dip in ice-cold distilled water. The slices were carefully dried in a stream of warm air and finally placed on a phosphor imager screen (Fuji Imaging Plate BAS-IP SR 2025 E) overnight prior to readout (30 µm resolution) using the HD-CR-35 Bio scanner (Elysia-Raytest, Straubenhardt, Germany). […] Regions of interest were analyzed from 3–4 tumor slices from the MCF-7, MDA-MB231 and T47D tumors, and mean values of the intensity per area were calculated.

[2] = tested on: ER- MDA-MB-231 tumor slices; test: In vitro autoradiography of MDA-MB-231 tumor slices; type: binding, human; conditions: 60 min, room temperature, with or without E2 (72 µM)
Description: as §1

[3] = Plasma protein binding (MicroSpin G-50 columns); type: in vitro ADME; conditions: human plasma, 10 min, 37 °C
Description: MicroSPin G-50 columns (Cytiva, Merck KGaA, Darmstadt, Germany) were preconditioned according to the manufacturer’s protocol and the experiment was performed as follows. In brief, an aliquot of the tracer (1 µL, approx. 250 kBq) was added to NaCl (0.9%, 200 µL, negative control) or human plasma (200 µL) and incubated for 10 min at 37 °C. A sample from the plasma or negative control (40 µL) was carefully added to the resin, and the column was placed in an Eppendorf tube. After centrifugation (2 min, 2000× g), the eluate and the resin were collected separately. Both were measured for radioactivity using a γ-counter (Wallac Wizard, PerkinElmer, Waltham, MA, USA), and the radioactivity eluted from the resin was calculated as a percentage of the total amount of radioactivity. The determination of plasma protein binding was performed twice in duplicate.

[4] = tested on: MCF-7 cells; test: Stability in cells (radio-HPLC of cell lysate); type: in vitro ADME, human; conditions: 90 min incubation, 37 °C, absence of serum
Description: ^18F-TA-Glyco-EE was incubated for 90 min at 37 °C with MCF-7 cells (350,000 cells/well, seeded one day prior to the experiment in 24-well plates) in cell culture medium. After washing twice with ice-cold PBS, the cells were scraped off, and 200 µL PBS was added for resuspension. The cell suspension was transferred to Eppendorf tubes, homogenized using ultrasound (Bandelin sonoplus HD2070 ultrasonic homogenizer, room temperature, BANDELIN electronic GmbH, Berlin, Germany) and then centrifuged. The supernatant was quenched in 10% TFA, and after centrifugation the resulting supernatant was analyzed by radio-HPLC (Chromolith RP-18e, 100 × 4.6 mm, 10–100% acetonitrile (containing 0.1% TFA) in water (containing 0.1% TFA) over 5 min, 4 mL/min).

[5] = Stability in human serum and plasma in vitro (radio-HPLC); type: in vitro ADME; conditions: 37 °C
Description: An aliquot of the formulated tracer solution (40 µL containing approx. 10 MBq in 0.9% NaCl) was incubated with 200 µL of human plasma (Hölzel Diagnostika Handels GmbH, from CosmoBio USA, Carlsbad, CA, USA) or human serum (Biochrom GmbH, Merck KGaA, Darmstadt, Germany), respectively, at 37 °C. After various time points (5–120 min), aliquots (30 µL) were taken and quenched in methanol or 10% TFA (30 µL). The samples were centrifuged for 3 min, and subsequently the supernatants were analyzed by radio-HPLC (Chromolith RP-18e, 100 × 4.6 mm, 10–100% acetonitrile (with 0.1% TFA) in water (with 0.1% TFA) over 5 min, 4 mL/min).

[6] = tested on: MCF-7 (ER+) tumor-bearing nude mice; test: Small animal PET imaging; type: in vivo
Description: Female NMRI nude mice (Crl:NMRI-Foxn1^nu) were purchased from Charles River (Charles River Laboratories Inc., Wilmington, MA, USA) at the age of four weeks and kept in groups of four to five animals in individually ventilated cages in a twelve hours dark/light cycle, with unlimited access to water and standard chow. At the age of nine to ten weeks, one 17β-estradiol pellet per animal (0.72 mg per pellet, 3 mm diameter) with a 60-day release time (Innovative Research of America, Sarasota, FL, USA) was subcutaneously implanted on the back under isoflurane anesthesia. After three days, approximately 2–3 × 10^6 MCF-7, T47D or MDA-MB-231 tumor cells (in 50 µL PBS) were mixed with Matrigel (50 µL, BD Biosciences, Becton, Dickinson and Company, Franklin Lakes, NJ, USA) and injected subcutaneously to the back of the mice. Tumor diameters and weight of the animals were recorded five times a week. Biodistribution or imaging studies were performed three–four weeks after the inoculation of the cells. […] Dynamic images were acquired for 60 min, starting with the injection of the radiotracer. […] Regions of interest (ROIs) were drawn over the tumor, and the mean radioactivity concentration within these regions was obtained from the mean values and calculated as a percentage of the total injected dose per gram tissue (%ID/g).

CC(=O)OC1C(C[18F])OC(n2cc(C3(O)CCC4C5CCc6cc(O)ccc6C5CCC43C)nn2)C(OC(C)=O)C1OC(C)=O (centres unmarked) [^18F-TA-Glyco-EE]
Binding to MCF-7 tumor sections (autoradiography) [1]: high specific binding | Binding to MDA-MB-231 tumor sections (autoradiography) [2]: negligible binding | Plasma Protein Binding [3]: 79 ± 1% | Stability in MCF-7 cells (intracellular radioactivity, HPLC) [4]: without any significant deacetylation | Stability in human serum and plasma (in words) ([5]; over 120 min, radio-HPLC): rapidly deacetylated in serum and plasma | Stability in Human Serum or Plasma ([5]; after 30 min, same for serum and plasma, deacetylation observed): 0% after 30 min ^2,5 | Uptake in MCF-7 tumors (PET) ([6]; 60 min p.i.): around 1 %ID/g | Tumor uptake, non-treated versus fulvestrant-treated animals (PET) ([6]; fulvestrant 0.5 mg s.c., second scan 48 h later, n = 4): significantly reduced tumor uptake on PET scans in one of the four animals; also recorded: did not show a significant difference
